“And” between values parts separate entries of the source, which are not always exact repeats. Equal entries are not always repeated. Where two headings read alike, the source gives them in different places.
Experiments:
Xcc NAMPT [1] = target: T1, Xcc NAMPT (Xanthomonas campestris pv. campestris, UniProt A0A0H2X5R2); assay: NAMPT enzyme activity, fluorometric NMN assay (kinetic constants); assay type: biochemical
Method: (§1) To ensure the reliability of the results, all assays were performed multiple times. NAMPT enzyme activity was assessed using a chemical approach that converted NMN into a fluorescent derivative, in accordance with established protocols[15],[30].
(§2) The enzymatic reactions were carried out for 15 min at 37 °C, and the quantification of NMN was achieved using the fluorescence method. Briefly, the sample containing NMN (25 μl) was mixed with 10 μl of 20% acetophenone (200 μl acetophenone dissolved in 800 μl DMSO) and 10 μl of 2 M KOH. The mixture was then incubated on ice for 10 minutes before adding 45 μl of 100% formic acid. The resulting mixture was incubated at 37 °C for 15 min. Samples (40 μl) were then transferred to a 384-well plate, and fluorescence intensity was measured using the Victor Nivo Multimode plate reader (Perkin Elmer), with excitation and emission wavelengths set at 355/40 and 435/20 nm, respectively.
Correspondingly, the additions of 20% acetophenone, 2 M KOH, and 100% formic acid were adjusted proportionally. The resulting final samples (120 μl) were transferred to 96-well plates, and the fluorescence values were measured following the same procedure as described earlier.
(§3) The kinetic data was analyzed using Graphpad Prism 8. To determine the hill coefficients, substrate-velocity curves were analyzed by nonlinear regression with an allosteric sigmoidal model using the equation v = Vmax S^h/(Km^h + S^h).

Xcc NAMPT [2] = target: T1, Xcc NAMPT; assay: Determination of IC50 value for FK866; assay type: biochemical
Xcc NAMPT [3] = target: T1, Xcc NAMPT; assay: biochemical
[4] = system: Xcc ΔNamptΔNads (XC_0719 and XC_1067 double deletion mutant); assay type: cell-based, Xanthomonas campestris pv. campestris; conditions: 0.1 mM supplement, 28 °C
Method: The bacterium Xcc was grown in NYG medium at 28 °C and shaked at 200 rpm for 16–18 h. Once the cells had grown to a point where OD600 reached 1.0, they were harvested via centrifugation and washed twice with MMX medium. Following this, a volume of 0.1 ml of the cell suspension was added to 5 ml of fresh MMX medium. […] The culture was grown at 28 °C and the OD600 values were measured every 12 h. The experiments were repeated at least three times to ensure consistency.

[5] = target: Xcc NAMPT H175F-I224F-V291F-I332F quadruple mutant (Xanthomonas campestris pv. campestris, UniProt A0A0H2X5R2, H175F/I224F/I332F/V291F); assay type: biochemical; conditions: for Km / kcat: 3.5 nM quadruple mutant
Method: as §1, §2
The kinetic data was analyzed using Graphpad Prism 8. To determine the hill coefficients, substrate-velocity curves were analyzed by nonlinear regression with an allosteric sigmoidal model using the equation v = Vmax S^h/(Km^h + S^h). […]
mutant. c-d Michaelis–Menten plots for the tunnel-blocked quadruple mutant of Xcc […]
To determine the kinetic parameters of quadruple mutant, a concentration of 3.5 nM mutant was used. […]

[6] = target: R373A+R180A mutant pair of Xcc NAMPT (Xanthomonas campestris pv. campestris, UniProt A0A0H2X5R2, R180A/R373A); assay: NAMPT enzyme activity, fluorometric NMN assay (kinetic constants); assay type: biochemical
Method: as §2
. Correspondingly, the additions of 20% acetophenone, 2 M KOH, and 100% formic acid were adjusted proportionally. The resulting final samples (120 μl) were transferred to 96-well plates, and the fluorescence values were measured following the same procedure as described earlier.
as §3
Fig. S9 Substrate-velocity curve for the R373A+R180A mutant pair of Xcc
of 0.3 nM mutant pair was used.
μM. The error bars depicted on the plot indicate the standard deviation of
measurements taken from three replicates.

Xcc NAMPT [7] = target: T1, Xcc NAMPT; conditions: read-out: Kd2; ITC, 25 mM NAM into 30 μM NAMPT, sequential binding sites model, second site
[8] = target: Xcc NAMPT with ATP pretreatment (Xanthomonas campestris pv. campestris, UniProt A0A0H2X5R2); conditions: ITC after ATP treatment, sequential binding
Method: Proteins pretreated with ATP were prepared by incubating 1 μM protein and 1 mM ATP at 25 °C for 30 min. […] The ATP was subsequently removed by gel filtration using the Superdex 200 Increase 10/300 GL column. The final concentrations of proteins were measured by Nanodrop.
figure presented is a representative sample from three separate experiments. A
sequential binding sites model was used to fit the binding curves, yielding the
dissociation constant (Kd) and the stoichiometry (N) of the binding reaction.
(1 picture or pasted object on this page, not shown here)

human NAMPT [9] = target: T2, human NAMPT (Homo sapiens, UniProt P43490); conditions: human NAMPT for NAM; cited from earlier work
T2 sequence (P43490 whole entry): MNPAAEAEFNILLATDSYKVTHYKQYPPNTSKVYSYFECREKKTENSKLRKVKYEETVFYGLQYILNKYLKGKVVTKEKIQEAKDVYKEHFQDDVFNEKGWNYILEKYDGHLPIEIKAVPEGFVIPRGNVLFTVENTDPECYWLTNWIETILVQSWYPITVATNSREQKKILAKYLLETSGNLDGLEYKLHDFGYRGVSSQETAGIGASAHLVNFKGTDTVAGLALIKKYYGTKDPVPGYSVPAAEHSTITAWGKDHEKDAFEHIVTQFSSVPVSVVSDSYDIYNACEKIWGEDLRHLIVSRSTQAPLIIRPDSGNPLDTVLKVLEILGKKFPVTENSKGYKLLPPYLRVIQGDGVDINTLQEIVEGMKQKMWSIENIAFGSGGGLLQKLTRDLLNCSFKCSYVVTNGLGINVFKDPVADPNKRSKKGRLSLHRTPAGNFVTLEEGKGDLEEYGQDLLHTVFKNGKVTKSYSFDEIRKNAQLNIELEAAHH

human NAMPT [10] = target: T2, human NAMPT; assay: NAMPT enzyme activity, fluorometric NMN assay (kinetic constants); assay type: biochemical; conditions: 30 nM human NAMPT, PRPP 3 to 50 μM
Method: To determine the kinetic parameters of human NAMPT, a concentration of 30 nM His-tagged human NAMPT was used. […] The remaining conditions were kept the same as those employed in the Xcc NAMPT reaction system.
as §2, §3

human NAMPT [11] = target: T2, human NAMPT; conditions: NAMPT activators; cited from earlier work
[12] = substrate of Xcc NAMPT, 37 °C, Michaelis-Menten fit
[13] = FK866 0.4 nM, E=0.4 nM, replicates
[14] = 0.3 nM mutant pair, NAM 0.1 to 4 μM

SMILES: Nc1ncnc2c1ncn2[C@@H]1O[C@H](COP(=O)(O)OP(=O)(O)OP(=O)(O)O)[C@@H](O)[C@H]1O [ATP]
- Km (Xcc NAMPT [1]): 560 ± 60 µM
- kcat (Xcc NAMPT [1]; [12]): 4.40 ± 0.16 s⁻¹

SMILES: O=C(/C=C/c1cccnc1)NCCCCC1CCN(C(=O)c2ccccc2)CC1 [FK866]
- IC50 (Xcc NAMPT [2]): 0.00023 µM
- Activity % (Xcc NAMPT [2]; FK866 0.02 nM, E=0.4 nM, replicates): 99.2204% and 100.986% and 94.6063% and 98.6899%
- Activity % (Xcc NAMPT [2]; FK866 0.04 nM, E=0.4 nM, replicates): 101.785% and 102.935% and 85.505% and 97.238%
- Activity % (Xcc NAMPT [2]; FK866 0.1 nM, E=0.4 nM, replicates): 78.2474% and 70.3189% and 72.1819% and 76.3149%
- Activity % (Xcc NAMPT [2]; FK866 0.2 nM, E=0.4 nM, replicates): 62.8959% and 69.0568% and 55.7537% and 65.4354%
- Activity % (Xcc NAMPT [2]; [13]): 17.7119% and 13.8804% and 14.6162%
- activity at 0.0004 µM (Xcc NAMPT [2]; [13]): 14.2%
- Activity % (Xcc NAMPT [2]; FK866 1 nM, E=0.4 nM, replicates): 4.02% and 4.725% and 5.923% and 4.615%
- Activity % (Xcc NAMPT [2]; FK866 2 nM, E=0.4 nM, replicates): 1.856% and 4.769% and 2.139% and 3.338%
- Kd (Xcc NAMPT [3]): 0.0822 µM

SMILES: O=C(O)c1cccnc1 [NA, nicotinic acid]
- growth of ΔNamptΔNads in MMX with supplement [4]: did not grow

SMILES: NC(=O)c1ccc[n+]([C@@H]2O[C@H](COP(=O)([O-])OP(=O)(O)OC[C@H]3O[C@@H](n4cnc5c(N)ncnc54)[C@H](O)[C@@H]3O)[C@@H](O)[C@H]2O)c1 [NAD+, nicotinamide adenine dinucleotide]
- growth of ΔNamptΔNads in MMX with supplement [4]: able to grow

SMILES: NC(=O)c1cccnc1 [NAM, nicotinamide]
- Km [5]: 7.33 ± 0.66 µM
- kcat [5]: 0.55 ± 0.02 s⁻¹
- hill coefficient ([5]; NAM, quadruple mutant): 1.00
- growth of ΔNamptΔNads in MMX with supplement [4]: did not grow
- Km [6, 14]: 0.08 ± 0.01 µM
- kcat [6, 14]: 0.188 ± 0.005 s⁻¹
- hill coefficient (H) ([6]; mutant pair, NAM): 1.64 ± 0.32 and 1.64
- Kd (Xcc NAMPT [7]): 21000 µM
- hill coefficient (Xcc NAMPT [1]; NAM substrate-velocity curve, allosteric sigmoidal model): ~ 1.98
- Kd ([8]; read-out: Kd (first binding site)): 330 µM
- Kd ([8]; read-out: Kd (second binding site)): 2990 µM
- Kd (Xcc NAMPT [3]): 1410 µM
- Km (human NAMPT [9]): 0.005 ± 0.002 µM

SMILES: NC(=O)c1ccc[n+]([C@@H]2O[C@H](CO)[C@@H](O)[C@H]2O)c1 [NmR, nicotinamide riboside]
- growth of ΔNamptΔNads in MMX with supplement [4]: did not grow

SMILES: O=P(O)(O)OC[C@H]1O[C@H](OP(=O)(O)OP(=O)(O)O)[C@H](O)[C@@H]1O [PRPP]
- kcat [5]: 0.44 ± 0.01 s⁻¹
- Km ([5]; read-out: Km): 9.56 ± 1.14 µM
- fold decrease in Km ([5]; quadruple mutant vs wild-type): 2.55 fold
- fold decrease in catalytic efficiency ([5]; quadruple mutant vs wild-type): about 5.80 fold
- fold decrease in kcat ([5]; quadruple mutant vs wild-type): 15.89 fold
- Km (Xcc NAMPT [1]; [12]): 24.4 ± 6.26 µM
- kcat (Xcc NAMPT [1]; [12]): 6.99 ± 0.56 s⁻¹
- kcat (human NAMPT [10]): 0.045 ± 0.001 s⁻¹
- Km (human NAMPT [10]; 2.5 mM ATP, 10 μM NAM): 5.41 ± 0.58 µM

SMILES: O=C(NCc1ccncc1)Nc1ccc(S(=O)(=O)N2CC3CCC(C2)O3)cc1 [SBI-797812]
- effect on the enzymatic activity of human NAMPT (human NAMPT [11]): almost double
